According to patent publication US6461997B1, “Triazole sulfones having herbicidal activity” (Monsanto Technology LLC, priority 1999, dated 2002):

Assays:
STEME (common chickweed) = assay: Pre-emergence herbicidal activity, cool season; format: in vivo, Stellaria media; conditions: lowest tested rate with 80% or greater inhibition; rates 300, 100, 30, 10 g/ha; about 14 days
How it was run: (§1)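 GR80 values derive from percent inhibition relative to untreated plants, read roughly 14 days after sowing and pre-emergence soil-surface treatment (compound in 50:50 acetone/water; rates typically 10, 30, 100, 300 g/ha). Warm-season weeds grew at 30/21° C day/night, cool-season ones at 18/13° C; an asterisk marks activity without reaching 80% at the highest rate.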

[1] = tested on: PANMI (wild proso millet); assay: Pre-emergence herbicidal activity, warm season; format: in vivo, Panicum miliaceum; conditions: GR80 = lowest tested rate (300, 100, 30, 10 g/ha) with 80% or greater inhibition; approx. 14 days after treating; 30/21° C.
How it was run: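 Under 18/13 °C (ALOMY, POLCO) or 30/21 °C (PANMI, DIGSA) day/night, pre-emergence soil-surface treatments at 300, 100, 30 and 10 g/ha were evaluated after roughly 14 days. GR80 reflects percent inhibition relative to untreated plants.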

SASKR (russian thistle) = assay: Pre-plant incorporated (PPI) herbicidal activity, cool season; format: in vivo, Salsola kali; conditions: for PPI activity GR80, SASKR: pre-plant incorporated, lowest tested rate with 80% or greater inhibition, about 14 days; for Percent inhibition SASKR: weed, PPI application
Method: (§2) In another set of tests, the pre-plant incorporated (PPI) activity of compounds of this invention was evaluated on the same species as for the pre-emergence tests described above. In the PPI tests the following procedure, designed to simulate PPI application, was used.
(§3) A pre-prepared topsoil mixture (described above) was placed in a pot and compacted to a depth of 1.0 to 1.25 cm from the top of the pot. Seeds of each of several monocotyledonous and dicotyledonous annual plant species were placed on top of the soil. A sufficient quantity of soil to cover the seeds and level fill the pot was weighed into an open container. A known amount of the test compound was dissolved or suspended in an organic solvent and applied by spraying to this cover soil. The cover soil was thoroughly mixed to distribute the test compound throughout the cover soil, and was then applied as a cover layer over the seeds. Untreated soil was used as a cover layer for control pots. After treatment the plants were placed in a greenhouse where they received 0.64 cm of overhead irrigation. All subsequent watering consisted of a light overhead mist and/or subirrigation as needed for germination and growth. Tables 9 and 10 below relate to warm season plant species which were placed after pre-emergence treatment in a greenhouse with a 30/21° C. day/night temperature regime. Tables 11 and 12 below relates to cool season plant species placed after pre-emergence treatment in a greenhouse or growth chamber with an 18/13° C. day/night temperature regime. Only the compounds of Examples 1, 6, 8, 11, 13 and 15-20 were included in PPI tests.
(§4) Approximately 14 days after planting and treating, the plants were observed and herbicidal efficacy recorded as percent inhibition by comparison with untreated plants.

corn (ZEAMX) = assay: Selectivity test, PPI, warm season crop; format: in vivo, Zea mays; conditions: PPI application
Method: as §3, §4
(§5) Additional pre-emergence and PPI tests were conducted by the procedures described above, on warm and cool season weed species in the presence of crop species, to assess herbicidal selectivity. Crop species included in warm season tests were corn (Zea mays, ZEAMX), rice (Oryza sativa, ORYSA) and soybean (Glycine max, GLYMX). Crop species included in cool season tests were wheat (Triticum aestivum, TRZAW), barley (Hordeunm vulgare, HORVX) and oilseed rape (Brassica napus, BRSNS).
(§6) Tables 15 and 16 relate to pre-emergence and PPI tests respectively on warm season species. Table 17 relates to pre-emergence tests on cool season species.

AVEFA (wild oat) = assay: Pre-plant incorporated (PPI) herbicidal activity, cool season; format: in vivo, Avena fatua; conditions: for PPI activity GR80, AVEFA: pre-plant incorporated, lowest tested rate with 80% or greater inhibition, about 14 days; for Percent inhibition AVEFA: weed, PPI application
Method: as §2, §3, §4

LOLMG (annual ryegrass) = assay: as above; format: in vivo, Lolium multiflorum; conditions: for PPI activity GR80, LOLMG: pre-plant incorporated, lowest tested rate with 80% or greater inhibition, about 14 days; for Percent inhibition LOLMG: weed, PPI application
Method: as §2, §3, §4

[2] = tested on: AGSST (creeping bentgrass); assay: as above; format: in vivo, Agrostis stolonifera; conditions: for PPI activity GR80, AGSST: pre-plant incorporated, lowest tested rate with 80% or greater inhibition, about 14 days; for Percent inhibition AGSST: weed, PPI application
Method: as §2, §3, §4

DIGSA (large crabgrass) = assay: Pre-plant incorporated (PPI) herbicidal activity, warm season; format: in vivo, Digitaria sanguinalis; conditions: for Percent inhibition DIGSA: PPI application; for PPI activity GR80, DIGSA: pre-plant incorporated, lowest tested rate with 80% or greater inhibition, about 14 days
Method: as §2, §3, §4

soybean (GLYMX) = assay: Selectivity test, PPI, warm season crop; format: in vivo, Glycine max; conditions: PPI application
Method: as §3, §4, §5, §6

SOLNI (black nightshade) = assay: Pre-emergence herbicidal activity, warm season; format: in vivo, Solanum nigrum; conditions: GR80 = lowest tested rate (300, 100, 30, 10 g/ha) with 80% or greater inhibition; approx. 14 days after treating; 30/21° C.
How it was run: as §1

With `CCN(CC)C(=O)n1cnc(S(=O)(=O)C(F)(F)SCCOC)n1` [Example 13] the “Pre-emergence activity GR80, STEME” value (STEME (common chickweed)) was 100 g/ha, the “Pre-emergence activity (GR80) PANMI” value [1] was 300 g/ha and the “PPI activity GR80, SASKR” value (SASKR (russian thistle)) was 300 g/ha. The “Percent inhibition SASKR” value (SASKR (russian thistle); 10 g/ha) was 20%, the “Percent inhibition SASKR” value (SASKR (russian thistle); 30 g/ha) was 30% and the “Percent inhibition SASKR” value (SASKR (russian thistle); 100 g/ha) was 80%. For the same molecule, the “Percent inhibition SASKR” value (SASKR (russian thistle); 300 g/ha) was 100%, the “Percent inhibition SASKR” value (SASKR (russian thistle); 900 g/ha) was 100% and the “Percent inhibition ZEAMX” value (corn (ZEAMX); 10 g/ha) was 0%. For the same molecule, the “Percent inhibition ZEAMX” value (corn (ZEAMX); 30 g/ha) was 0%, the “Percent inhibition ZEAMX” value (corn (ZEAMX); 100 g/ha) was 5% and the “Percent inhibition ZEAMX” value (corn (ZEAMX); 300 g/ha) was 10%. The “Percent inhibition ZEAMX” value (corn (ZEAMX); 900 g/ha) was 50%, the “PPI activity GR80, AVEFA” value (AVEFA (wild oat)) was “[empty]” and the “Percent inhibition AVEFA” value (AVEFA (wild oat); 10 g/ha) was 0%. For the same molecule, the “Percent inhibition AVEFA” value (AVEFA (wild oat); 30 g/ha) was 0%, the “Percent inhibition AVEFA” value (AVEFA (wild oat); 100 g/ha) was 0% and the “Percent inhibition AVEFA” value (AVEFA (wild oat); 300 g/ha) was 50%. The “Percent inhibition AVEFA” value (AVEFA (wild oat); 900 g/ha) was 90%, the “PPI activity GR80, LOLMG” value (LOLMG (annual ryegrass)) was “* (activity observed, at least at highest rate, but <80% inhibition)” and the “Percent inhibition LOLMG” value (LOLMG (annual ryegrass); 10 g/ha) was 20%. For the same molecule, the “Percent inhibition LOLMG” value (LOLMG (annual ryegrass); 30 g/ha) was 60%, the “Percent inhibition LOLMG” value (LOLMG (annual ryegrass); 100 g/ha) was 70% and the “Percent inhibition LOLMG” value (LOLMG (annual ryegrass); 300 g/ha) was 100%. The “Percent inhibition LOLMG” value (LOLMG (annual ryegrass); 900 g/ha) was 100%, the “PPI activity GR80, AGSST” value [2] was 30 g/ha and the “Percent inhibition AGSST” value ([2]; 10 g/ha) was 60%. For the same molecule, the “Percent inhibition AGSST” value ([2]; 30 g/ha) was 95%, the “Percent inhibition AGSST” value ([2]; 100 g/ha) was 100% and the “Percent inhibition AGSST” value ([2]; 300 g/ha) was 100%. For the same molecule, the “Percent inhibition AGSST” value ([2]; 900 g/ha) was 100%, the “Percent inhibition DIGSA” value (DIGSA (large crabgrass); 10 g/ha) was 0% and the “Percent inhibition DIGSA” value (DIGSA (large crabgrass); 30 g/ha) was 75%. For the same molecule, the “Percent inhibition DIGSA” value (DIGSA (large crabgrass); 100 g/ha) was 100%, the “Percent inhibition DIGSA” value (DIGSA (large crabgrass); 300 g/ha) was 100% and the “Percent inhibition DIGSA” value (DIGSA (large crabgrass); 900 g/ha) was 100%. For the same molecule, the “PPI activity GR80, DIGSA” value (DIGSA (large crabgrass)) was 30 g/ha, the “Percent inhibition GLYMX” value (soybean (GLYMX); 10 g/ha) was 0% and the “Percent inhibition GLYMX” value (soybean (GLYMX); 30 g/ha) was 0%. The “Percent inhibition GLYMX” value (soybean (GLYMX); 100 g/ha) was 0%, the “Percent inhibition GLYMX” value (soybean (GLYMX); 300 g/ha) was 30% and the “Percent inhibition GLYMX” value (soybean (GLYMX); 900 g/ha) was 70%. The “Pre-emergence activity (GR80) SOLNI” value (SOLNI (black nightshade)) was 300 g/ha.
With `CCN(CC)C(=O)n1cnc(S(=O)(=O)C(F)(F)C(F)F)n1` [Example 16] the “Pre-emergence activity GR80, STEME” value (STEME (common chickweed)) was 300 g/ha, the “Pre-emergence activity (GR80) PANMI” value [1] was 30 g/ha and the “PPI activity GR80, SASKR” value (SASKR (russian thistle)) was 30 g/ha. The “Percent inhibition SASKR” value (SASKR (russian thistle); 10 g/ha) was 65%, the “Percent inhibition SASKR” value (SASKR (russian thistle); 30 g/ha) was 90% and the “Percent inhibition SASKR” value (SASKR (russian thistle); 100 g/ha) was 80%. For the same molecule, the “Percent inhibition SASKR” value (SASKR (russian thistle); 300 g/ha) was 80%, the “Percent inhibition SASKR” value (SASKR (russian thistle); 900 g/ha) was 100% and the “Percent inhibition ZEAMX” value (corn (ZEAMX); 10 g/ha) was 0%. For the same molecule, the “Percent inhibition ZEAMX” value (corn (ZEAMX); 30 g/ha) was 5%, the “Percent inhibition ZEAMX” value (corn (ZEAMX); 100 g/ha) was 20% and the “Percent inhibition ZEAMX” value (corn (ZEAMX); 300 g/ha) was 40%. The “Percent inhibition ZEAMX” value (corn (ZEAMX); 900 g/ha) was 80%, the “PPI activity GR80, AVEFA” value (AVEFA (wild oat)) was 300 g/ha and the “Percent inhibition AVEFA” value (AVEFA (wild oat); 10 g/ha) was 0%. For the same molecule, the “Percent inhibition AVEFA” value (AVEFA (wild oat); 30 g/ha) was 0%, the “Percent inhibition AVEFA” value (AVEFA (wild oat); 100 g/ha) was 0% and the “Percent inhibition AVEFA” value (AVEFA (wild oat); 300 g/ha) was 80%. For the same molecule, the “Percent inhibition AVEFA” value (AVEFA (wild oat); 900 g/ha) was 90%, the “PPI activity GR80, LOLMG” value (LOLMG (annual ryegrass)) was 300 g/ha and the “Percent inhibition LOLMG” value (LOLMG (annual ryegrass); 10 g/ha) was 45%. For the same molecule, the “Percent inhibition LOLMG” value (LOLMG (annual ryegrass); 30 g/ha) was 35%, the “Percent inhibition LOLMG” value (LOLMG (annual ryegrass); 100 g/ha) was 90% and the “Percent inhibition LOLMG” value (LOLMG (annual ryegrass); 300 g/ha) was 95%. The “Percent inhibition LOLMG” value (LOLMG (annual ryegrass); 900 g/ha) was 100%, the “PPI activity GR80, AGSST” value [2] was 10 g/ha and the “Percent inhibition AGSST” value ([2]; 10 g/ha) was 100%. The “Percent inhibition AGSST” value ([2]; 30 g/ha) was 100%, the “Percent inhibition AGSST” value ([2]; 100 g/ha) was 100% and the “Percent inhibition AGSST” value ([2]; 300 g/ha) was 100%. The “Percent inhibition AGSST” value ([2]; 900 g/ha) was 100%, the “Percent inhibition DIGSA” value (DIGSA (large crabgrass); 10 g/ha) was 70% and the “Percent inhibition DIGSA” value (DIGSA (large crabgrass); 30 g/ha) was 100%. For the same molecule, the “Percent inhibition DIGSA” value (DIGSA (large crabgrass); 100 g/ha) was 90%, the “Percent inhibition DIGSA” value (DIGSA (large crabgrass); 300 g/ha) was 100% and the “Percent inhibition DIGSA” value (DIGSA (large crabgrass); 900 g/ha) was 100%. For the same molecule, the “PPI activity GR80, DIGSA” value (DIGSA (large crabgrass)) was 10 g/ha, the “Percent inhibition GLYMX” value (soybean (GLYMX); 10 g/ha) was 0% and the “Percent inhibition GLYMX” value (soybean (GLYMX); 30 g/ha) was 0%. For the same molecule, the “Percent inhibition GLYMX” value (soybean (GLYMX); 100 g/ha) was 10%, the “Percent inhibition GLYMX” value (soybean (GLYMX); 300 g/ha) was 10% and the “Percent inhibition GLYMX” value (soybean (GLYMX); 900 g/ha) was 80%. For the same molecule, the “Pre-emergence activity (GR80) SOLNI” value (SOLNI (black nightshade)) was 100 g/ha.
